Test results reported in ChEMBL document CHEMBL5113477, “Membrane acting Povarov-Doebner derived compounds potently disperse preformed multidrug resistant Gram-positive bacterial biofilms” (Eur J Med Chem, 2022).
Values after ≈ are worked out from the molar mass of the structure shown.

Experiments:
Type in all cases: functional
Staphylococcus aureus [1] = assay: Induction of drug resistance in methicillin-resistant Staphylococcus aureus USA 300 assessed as fold increase in MIC treated daily for 30 days; settings: time 30.0 day
Staphylococcus aureus [2] = assay: Induction of drug resistance in methicillin-resistant Staphylococcus aureus ATCC 33592 assessed as fold increase in MIC treated daily for 30 days; settings: time 30.0 day
Staphylococcus aureus [3] = assay: Antibacterial activity against Staphylococcus aureus ATCC 25923 assessed as reduction in visible bacterial growth incubated for 18 to 20 hrs by CLSI based broth microdilution analysis; settings: time 18-20 hrs
Enterococcus faecalis [4] = assay: Antibacterial activity against vancomycin-resistant Enterococcus faecalis ATCC 51575 assessed as reduction in visible bacterial growth incubated for 18 to 20 hrs by CLSI based broth microdilution analysis; settings: time 18-20 hrs
Enterococcus faecium [5] = assay: Antibacterial activity against vancomycin-resistant Enterococcus faecium ATCC 700221 assessed as reduction in visible bacterial growth incubated for 18 to 20 hrs by CLSI based broth microdilution analysis; settings: time 18-20 hrs
Listeria monocytogenes = assay: Antibacterial activity against Listeria monocytogenes ATCC 19115 assessed as reduction in visible bacterial growth incubated for 18 to 20 hrs by CLSI based broth microdilution analysis; settings: time 18-20 hrs
Staphylococcus aureus [6] = assay: Antibacterial activity against methicillin-resistant Staphylococcus aureus USA 300 assessed as reduction in visible bacterial growth incubated for 18 to 20 hrs by CLSI based broth microdilution analysis; settings: time 18-20 hrs
Staphylococcus aureus [7] = assay: Antibacterial activity against methicillin-resistant Staphylococcus aureus ATCC 33592 assessed as reduction in visible bacterial growth incubated for 18 to 20 hrs by CLSI based broth microdilution analysis; settings: time 18-20 hrs
Enterococcus faecalis [8] = assay: Antibacterial activity against Enterococcus faecalis ATCC 29212 assessed as reduction in visible bacterial growth incubated for 18 to 20 hrs by CLSI based broth microdilution analysis; settings: time 18-20 hrs
Staphylococcus aureus [9] = assay: Antibacterial activity against methicillin-resistant Staphylococcus aureus USA 300 (ARLG 1567) assessed as reduction in visible bacterial growth incubated for 18 to 20 hrs by CLSI based broth microdilution analysis; settings: time 18-20 hrs
Staphylococcus aureus [10] = assay: Antibacterial activity against methicillin-resistant Staphylococcus aureus USA 300 (ARLG 1568) assessed as reduction in visible bacterial growth incubated for 18 to 20 hrs by CLSI based broth microdilution analysis; settings: time 18-20 hrs
Staphylococcus aureus [11] = assay: Antibacterial activity against methicillin-resistant Staphylococcus aureus USA 300 (ARLG 1569) assessed as reduction in visible bacterial growth incubated for 18 to 20 hrs by CLSI based broth microdilution analysis; settings: time 18-20 hrs
Staphylococcus aureus [12] = assay: Antibacterial activity against methicillin-resistant Staphylococcus aureus USA 300 (ARLG 1665) assessed as reduction in visible bacterial growth incubated for 18 to 20 hrs by CLSI based broth microdilution analysis; settings: time 18-20 hrs
Staphylococcus aureus [13] = assay: Antibacterial activity against methicillin-resistant Staphylococcus aureus USA 300 (ARLG 1561) assessed as reduction in visible bacterial growth incubated for 18 to 20 hrs by CLSI based broth microdilution analysis; settings: time 18-20 hrs
Staphylococcus aureus [14] = assay: Antibacterial activity against methicillin-resistant Staphylococcus aureus USA 300 (ARLG 1570) assessed as reduction in visible bacterial growth incubated for 18 to 20 hrs by CLSI based broth microdilution analysis; settings: time 18-20 hrs
Staphylococcus aureus [15] = assay: Antibacterial activity against methicillin-resistant Staphylococcus aureus USA 300 (ARLG 1644) assessed as reduction in visible bacterial growth incubated for 18 to 20 hrs by CLSI based broth microdilution analysis; settings: time 18-20 hrs
Staphylococcus aureus [16] = assay: Antibacterial activity against methicillin-resistant Staphylococcus aureus USA 300 (ARLG 1663) assessed as reduction in visible bacterial growth incubated for 18 to 20 hrs by CLSI based broth microdilution analysis; settings: time 18-20 hrs
Staphylococcus aureus [17] = assay: Antibacterial activity against methicillin-resistant Staphylococcus aureus USA 300 (ARLG 1649) assessed as reduction in visible bacterial growth incubated for 18 to 20 hrs by CLSI based broth microdilution analysis; settings: time 18-20 hrs
Enterococcus faecalis [18] = assay: Antibiofilm activity against vancomycin-resistant Enterococcus faecalis ATCC 51575 in TSB broth assessed as dispersal of glucose-induced biofilm preincubated with glucose for 48 hrs followed by compound addition and measured after 24 hrs by crystal violet staining based analysis
Enterococcus faecium [19] = assay: Antibiofilm activity against vancomycin-resistant Enterococcus faecium ATCC 700221 in TSB broth assessed as dispersal of glucose-induced biofilm preincubated with glucose for 48 hrs followed by compound addition and measured after 24 hrs by crystal violet staining based analysis
Staphylococcus aureus [20] = assay: Antibiofilm activity against methicillin-resistant Staphylococcus aureus USA 300 in TSB broth assessed as dispersal of glucose-induced biofilm preincubated with glucose for 48 hrs followed by compound addition and measured after 24 hrs by crystal violet staining based analysis

C/C(=C\C(=O)OCCCCCCCCC(=O)O)C[C@@H]1OC[C@H](C[C@@H]2O[C@H]2[C@@H](C)[C@H](C)O)[C@@H](O)[C@H]1O
fold change (FC) (Staphylococcus aureus [1]): > 60 | fold change (FC) (Staphylococcus aureus [2]): > 250

FS(F)(F)(F)(F)c1ccc2c(c1)[C@H]1[C@@H]3CC[C@@H](C3)[C@H]1[C@H](c1ccccc1)N2
MIC (Staphylococcus aureus [3]): > 16 µg/mL

Oc1cccc([C@@H]2Nc3ccc(SC(F)(F)F)cc3[C@H]3[C@@H]4CC[C@@H](C4)[C@H]32)c1
MIC (Staphylococcus aureus [3]): 4 µg/mL (≈ 10.2 µM)

Oc1ccc([C@@H]2Nc3cc(F)cc(F)c3[C@H]3[C@@H]4CC[C@@H](C4)[C@H]32)cc1
MIC (Staphylococcus aureus [3]): 4 µg/mL (≈ 12.2 µM)

Oc1ccc([C@@H]2Nc3ccc(C(F)(F)F)cc3[C@H]3[C@@H]4CC[C@@H](C4)[C@H]32)cc1
MIC (Enterococcus faecalis [4]): 2 µg/mL (≈ 5.56 µM) | MIC (Enterococcus faecium [5]): 2 µg/mL (≈ 5.56 µM) | MIC (Listeria monocytogenes): 2 µg/mL (≈ 5.56 µM) | MIC (Staphylococcus aureus [3]): 2 µg/mL (≈ 5.56 µM) | MIC (Staphylococcus aureus [6]): 2 µg/mL (≈ 5.56 µM) | MIC (Staphylococcus aureus [7]): 2 µg/mL (≈ 5.56 µM) | MIC (Enterococcus faecalis [8]): 2 µg/mL (≈ 5.56 µM)

Oc1cccc([C@@H]2Nc3ccc(S(F)(F)(F)(F)F)cc3[C@H]3[C@@H]4CC[C@@H](C4)[C@H]32)c1
MIC (Staphylococcus aureus [3]): 4 µg/mL (≈ 9.58 µM)

Oc1ccccc1[C@@H]1Nc2ccc(S(F)(F)(F)(F)F)cc2[C@H]2[C@@H]3CC[C@@H](C3)[C@H]21
MIC (Staphylococcus aureus [3]): 4 µg/mL (≈ 9.58 µM)

Oc1ccc(-c2nc3ccc(S(F)(F)(F)(F)F)cc3c3c2[C@H]2CC[C@@H]3C2)cc1
MIC (Staphylococcus aureus [3]): > 16 µg/mL

CC(=O)NC[C@H]1CN(c2ccc(N3CCOCC3)c(F)c2)C(=O)O1 [LINEZOLID]
MBC (Enterococcus faecalis [4]): > 128 µg/mL | MBC (Staphylococcus aureus [9]): > 64 µg/mL | MIC (Staphylococcus aureus [9]): 1 µg/mL (≈ 2.96 µM) | MBC (Staphylococcus aureus [10]): > 64 µg/mL | MIC (Staphylococcus aureus [10]): 1 µg/mL (≈ 2.96 µM) | MBC (Enterococcus faecium [5]): > 128 µg/mL | MIC (Enterococcus faecium [5]): 1 µg/mL (≈ 2.96 µM) | MBC (Staphylococcus aureus [11]): 64 µg/mL (≈ 190 µM) | MIC (Staphylococcus aureus [11]): 1 µg/mL (≈ 2.96 µM) | MIC (Listeria monocytogenes): 2 µg/mL (≈ 5.93 µM) | MBC (Staphylococcus aureus [3]): 64 µg/mL (≈ 190 µM) | MBC (Staphylococcus aureus [12]): > 64 µg/mL | MIC (Staphylococcus aureus [12]): 1 µg/mL (≈ 2.96 µM) | MBC (Staphylococcus aureus [6]): 128 µg/mL (≈ 379 µM) | MBC (Staphylococcus aureus [13]): 64 µg/mL (≈ 190 µM) | MIC (Staphylococcus aureus [13]): 1 µg/mL (≈ 2.96 µM) | MBC (Staphylococcus aureus [7]): 64 µg/mL (≈ 190 µM) | MBC (Staphylococcus aureus [14]): 64 µg/mL (≈ 190 µM) | MIC (Staphylococcus aureus [14]): 1 µg/mL (≈ 2.96 µM) | MBC (Staphylococcus aureus [15]): > 64 µg/mL | MIC (Staphylococcus aureus [15]): 1 µg/mL (≈ 2.96 µM) | MBC (Staphylococcus aureus [16]): > 64 µg/mL | MIC (Staphylococcus aureus [16]): 1 µg/mL (≈ 2.96 µM) | MBC (Staphylococcus aureus [17]): > 64 µg/mL | MIC (Staphylococcus aureus [17]): 1 µg/mL (≈ 2.96 µM) | MBC (Enterococcus faecalis [8]): 64 µg/mL (≈ 190 µM)

O=[N+]([O-])c1ccc(O)c2ncccc12 [NITROXOLINE]
MBEC (Enterococcus faecalis [18]): 16 µg/mL | MBEC (Enterococcus faecium [19]): 16 µg/mL | MBEC (Staphylococcus aureus [20]): 16 µg/mL

CSc1ccc2c(c1)[C@H]1[C@@H]3CC[C@@H](C3)[C@H]1[C@H](c1ccc(O)cc1)N2
MIC (Staphylococcus aureus [3]): > 16 µg/mL
